Source: patent US20250108213A1, “COMPOSITIONS AND METHODS FOR ENHANCING THE EFFECT OF PLATINUM-BASED SYSTEMIC THERAPY” (NOVOCURE GMBH, priority 2023, published 2025)
Entries after “also recorded” stand apart in the source; their conditions may differ. Read-outs that look alike come from different tables or passages of the source.

What was measured:
OVCAR-3 cells [1] = assay: Apoptosis, Annexin V/7-AAD staining, flow cytometer; assay type: cell-based, human; conditions: TTFields applied with drug
Experimental: (§1) Apoptosis: Treated cells were double-stained with FITC-conjugated annexin V (AnnV) and 7-aminoactinomycin D (7AAD), and data acquisition was performed with a flow cytometer.
(§2) Treated cells were stained with FITC-conjugated Annexin V (AnnV) and 7-Aminoactinomycin D (7-AAD) using a commercial kit (BioLegend, San Diego, CA, USA), according to the manufacturer's instruction. Data acquisition and analysis were done on the Cytek Northern Lights flow cytometer

G2/M cell cycle arrest = assay: Cell cycle analysis (7-AAD, flow cytometer); assay type: cell-based, human
Experimental: For DNA damage and cell cycle examination, the following drug concentrations were selected: For A2780—6 μM carboplatin, 1 μM olaparib, and 0.5 μM niraparib; For OVCAR-3-16 μM carboplatin, 0.5 μM olaparib, and 0.8 μM niraparib; For A2780cis—36 μM carboplatin, 10 μM olaparib, and 1.5 μM niraparib. Treated cells were fixed with 70% ice-cold ethanol for 30 min, pelleted, washed, and stained for 30 min at 37° C. in phosphate buffered saline (PBS) containing 1% FBS 5 μg/ml 7-AAD (BioLegend), 200 μg/ml RNase, 1 mM EDTA and 0.1% Triton X-100. Data acquisition (at 665/30 nm) and analysis were done on the Cytek Northern Lights flow cytometer and the FlowJo 10.8.1 software (BD Biosciences), respectively.

A2780 cells [2] = assay: Apoptosis, Annexin V/7-AAD staining, flow cytometer; assay type: cell-based, human; conditions: TTFields applied with drug
Experimental: as §1
(§3) Apoptosis was also examined. Treated cells were double-stained with FITC-conjugated annexin V (AnnV) and 7-aminoactinomycin D (7AAD), and data acquisition was performed with a flow cytometer.
as §2

OVCAR-3 cells [3] = conditions: for effect of TTFields on the drug-induced overall effect (cell count x colony formation) / effect of TTFields on the drug-induced effect, cell count: TTFields plus drug vs drug alone; for effect of TTFields on the drug-induced effect, cell count: p<0.0001; for sensitivity to drug (cell count dose response): drug alone, compared among A2780, OVCAR-3, A2780cis
Experimental: (§4) Cells were seeded on coverslip (22 mm diameter; 20×10^3 cells/coverslip for A2780 and A2780cis; 40×10^3 cells/coverslip for OVCAR-3). After overnight incubation, the coverslips were transferred into in vitro dishes containing 2 ml of media. TTFields at a frequency of 200 kHz (and intensity of 1 V/cm RMS) were applied to the cells for 72 hr using the INOVITRO system (Novocure, Haifa, Israel).
(§5) For efficacy outcomes (cell count, overall effect, and apoptosis), various concentrations of carboplatin (MCE MedChemExpress, HY-17393), olaparib (Cayman Chemical, 10621), or niraparib (Cayman Chemical, 20842) were applied, with or without TTFields.
(§6) Cell count was examined following treatment using Cytek Northern Lights flow cytometer (Cytek Biosciences, USA).
(§7) Treated cells were harvested, re-plated in 6-well plates (500 cells/well for A2780 and A2780cis; 1000 for cells/well OVCAR-3), and grown for 7 (A2780 and A2780cis) or 21 (OVCAR-3) days. Colonies were stained with 0.5% crystal violet, quantified with ImageJ, and expressed as percentages relative to control. Overall effect was calculated by multiplying colony formation with the corresponding cell count.
(§8) The surviving fraction predicted for an additive effect between TTFields and drug was calculated per the various drug concentrations by multiplying the actual measured surviving fractions for the individual treatments one by the other (SFcalculated additive=SFTTFields×SFdrug; SF are expressed as probability). Based on the calculated values, a trendline was determined. Additivity, synergy, or antagonism was defined when the calculated additive trendline overlapped, was above, or was below the actual measured line for TTFields+drug, respectively.
(§9) For quantifying the magnitude of TTFields-drug interaction, interaction index (Ii) values were calculated by the Bliss independence method using mortality values (Mx=1−SFx). Per the various drug concentrations, mortality predicted for an additive effect between TTFields and drug (Mcalculated additive=MTTFields+Mdrug−MTTFields×Mdrug) was divided by the actual measured mortality for TTFields+drug. Additivity was determined when the 95% confidence interval (CI) overlapped 1, synergy when 95% CI<1, and antagonism when 95% CI>1. Lower Ii values were considered indicative of higher synergy levels.

A2780 cells [4] = conditions: for type of TTFields-drug interaction (measured vs calculated additive curve): HRP cells; for effect of TTFields on the drug-induced overall effect (cell count x colony formation) / effect of TTFields on the drug-induced effect, cell count: TTFields plus drug vs drug alone; for effect of TTFields on the drug-induced effect, cell count: p<0.0001
Experimental: as §4, §5, §6, §7, §8, §9

A2780cis cells [5] = assay: Cell count and overall effect (cell count x colony formation) after 72 h drug with or without TTFields; assay type: cell-based, human; conditions: for effect of TTFields on the drug-induced overall effect (cell count x colony formation) / effect of TTFields on the drug-induced effect, cell count: TTFields plus drug vs drug alone; for effect of TTFields on the drug-induced effect, cell count: p<0.0001; for sensitivity to drug (cell count dose response) / effect of TTFields on sensitivity to / effect of the drug / type of TTFields-drug interaction (measured vs calculated additive curve): 72 h; for sensitivity to drug (cell count dose response): compared among A2780, OVCAR-3, A2780cis; for effect of TTFields on sensitivity to / effect of the drug: platinum-resistant cell line; for effect of TTFields on sensitivity to / effect of the drug / type of TTFields-drug interaction (measured vs calculated additive curve): TTFields 200 kHz, 1 V/cm RMS; for type of TTFields-drug interaction (measured vs calculated additive curve): platinum-resistant cells
Experimental: TTFields were applied to the cells for 72 h in the absence or presence of various concentrations of carboplatin. Synergy was defined when the observed value was lower than that predicted for an additive effect (presented by the red dotted line-calculated by multiplying the observed effects for TTFields alone with that for cisplatin alone).
The Cytotoxic effect was also determined. Treated cells were counted using a flow cytometer, and cytotoxic effect was calculated relative to control cells.
Treated cells were harvested, re-plated, and grown for an additional 7-14 days. Colonies were stained (0.5% crystal violet solution), counted, and clonogenic effect was calculated relative to control. The overall effect was calculated by multiplying the cytotoxic and clonogenic effects.
TTFields application was studied. Ovarian carcinoma cells A2780cis (cisplatin resistant cells) were treated for 72 h with TTFields at an intensity of 1 V/cm RMS and a frequency of 200 kHz using the inovitro system (See FIG. 11).
TTFields were applied to the cells for 72 h in the absence or presence of various concentrations of PARPi Olaparib and Niraparib. Synergy was defined when the observed value was lower than that predicted for an additive effect (presented by the red dotted line-calculated by multiplying the observed effects for TTFields alone with that for cisplatin alone).
The cytotoxic effect was studied. Treated cells were counted using a flow cytometer, and cytotoxic effect was calculated relative to control cells.
Treated cells were harvested, re-plated, and grown for an additional 7-14 days. Colonies were stained (0.5% crystal violet solution), counted, and clonogenic effect was calculated relative to control. Overall effect was calculated by multiplying the cytotoxic and clonogenic effects.
as §4, §5, §6, §7, §8
For quantifying the magnitude of TTFields-drug interaction, interaction index (Ii) values were calculated by the Bliss independence method using mortality values (Mx=1−SFx). Per the various drug concentrations, mortality predicted for an additive effect between TTFields and drug (Mcalculated additive=MTTFields+Mdrug−MTTFields×Mdrug) was divided by the actual measured mortality for TTFields+drug.

[6] = test system: γH2AX foci in cell nuclei; assay: DNA damage examination by fluorescence microscopy; assay type: cell-based, human
Experimental: For DNA damage and cell cycle examination, the following drug concentrations were selected: For A2780—6 μM carboplatin, 1 μM olaparib, and 0.5 μM niraparib; For OVCAR-3-16 μM carboplatin, 0.5 μM olaparib, and 0.8 μM niraparib; For A2780cis—36 μM carboplatin, 10 μM olaparib, and 1.5 μM niraparib. Treated cells were fixed with 4% paraformaldehyde for 10 min, permeabilized for 20 min with 0.5% Triton X-100 in PBS, and blocked with donkey serum (PBS with 0.3% Triton X-100 and donkey serum 1:100). Cells were incubated at 4° C. overnight with anti-γH2AX antibody (Cell Signaling, Danvers, MA, USA; #9718, 1:400), followed by incubation at room temperature for 1 hr with Alexa Flour 488-conjugated secondary antibody (Jackson Immunoresearch, Cambridge, UK; #711-545-152, 1:500) and […] 4′,6-diamidino-2-phenylindole (DAPI; Sigma Aldrich, Rehovot, Israel). LSM 700 laser scanning confocal system (Zeiss, Gottingen, Germany) was utilized to obtain images, and the mean number of foci per nucleus was determined using the FIJI software with the BioVoxxel plugin.

A2780cis cells [7] = assay: Apoptosis, Annexin V/7-AAD staining, flow cytometer; assay type: cell-based, human; conditions: TTFields applied with drug
Experimental: as §3
Treated cells were double-stained with FITC-conjugated annexin V (AnnV) and 7-aminoactinomycin D (7AAD), and data acquisition was performed with a flow cytometer.
as §2

[8] = TTFields 200 kHz, 1 V/cm RMS, 72 h
[9] = treatment alone, all cell lines (A2780, OVCAR-3, A2780cis), relative to control
[10] = Bliss independence, TTFields plus drug

Compound	effect of TTFields on the apoptotic effect / apoptotic cell fraction (OVCAR-3 cells [1])	cell cycle arrest, drug alone (G2/M cell cycle arrest)	effect of TTFields on the apoptotic effect / apoptotic cell fraction (A2780 cells [2])	effect of TTFields on the drug-induced overall effect (cell count x colony formation) (OVCAR-3 cells [3])	effect of TTFields on the drug-induced effect, cell count (OVCAR-3 cells [3])	sensitivity to drug (cell count dose response) (OVCAR-3 cells [3]; 72 h)	type of TTFields-drug interaction (measured vs calculated additive curve) (A2780 cells [4]; [8])	type of TTFields-drug interaction, overall effect (cell count and clonogenic effect) (A2780 cells [4]; [8])	effect of TTFields on the drug-induced overall effect (cell count x colony formation) (A2780 cells [4])	effect of TTFields on the drug-induced effect, cell count (A2780 cells [4])	effect of TTFields on the drug-induced overall effect (cell count x colony formation) (A2780cis cells [5])	effect of TTFields on the drug-induced effect, cell count (A2780cis cells [5])	sensitivity to drug (cell count dose response) (A2780cis cells [5]; drug alone)	effect of TTFields on sensitivity to / effect of the drug (A2780cis cells [5])	type of TTFields-drug interaction (measured vs calculated additive curve) (A2780cis cells [5])	levels of γH2AX foci, monotherapy [6, 9]	effect of TTFields on the apoptotic effect / apoptotic cell fraction (A2780cis cells [7])	also measured
NC(=O)c1cccc2cn(-c3ccc([C@@H]4CCCNC4)cc3)nc12 [niraparib]	enhanced; also recorded: elevation	induced G2/M arrest	enhanced; also recorded: elevation	significantly augmented	significantly augmented	highest sensitivity	high synergy	synergistically	significantly augmented	significantly augmented	significantly augmented	significantly augmented	highest resistance	increased the sensitivity	tendency to synergy	mild elevation	elevation	type of TTFields-drug interaction, cytotoxic effect (cell count) (OVCAR-3 cells [3]): additively; type of TTFields-drug interaction (measured vs calculated additive curve) (OVCAR-3 cells [3]; HRD cells, TTFields 200 kHz, 1 V/cm RMS, 72 h): additively; type of TTFields-drug interaction, overall effect (cell count and clonogenic effect) (OVCAR-3 cells [3]; [8]): additive; type of TTFields-drug interaction, cytotoxic effect (cell count) (A2780 cells [4]): synergistically; level of TTFields-drug synergy (A2780 cells [4]; A2780 relative to A2780cis cells, by Ii): higher
N.N.O=C([O-])C1(C(=O)[O-])CCC1.[Pt+2] [carboplatin]	enhanced; also recorded: increases	induced G2/M arrest	enhanced; also recorded: increases	significantly elevated	significantly amplified	highest sensitivity	tendency to synergism; also recorded: additive; also recorded: tendency to synergy	Signs of synergy	significantly elevated	significantly amplified	significantly elevated	significantly amplified	lower response; also recorded: highest resistance	increased the sensitivity	synergistic; also recorded: synergistically; also recorded: tendency to synergy	more pronounced effect	increases	interaction index (Ii), 95% confidence interval (OVCAR-3 cells [3]; [10]): > 1; interaction index (Ii), 95% confidence interval (A2780 cells [4]; [10]): smaller than 1; type of TTFields-drug interaction, cytotoxic effect (cell count) (A2780 cells [4]; TTFields 200 kHz, 1 V/cm RMS, 72 h, BRCA wt): Signs of synergy; level of TTFields-drug synergy (A2780cis cells [5]; A2780cis relative to A2780 cells, by Ii): higher levels; interaction index (Ii), 95% confidence interval (A2780cis cells [5]; [10]): smaller than 1; decreased sensitivity of A2780cis cells compared with wild type A2780 cells (A2780cis cells [5]; drug alone, titration): 5 fold; levels of γH2AX foci, monotherapy ([6]; drug alone, OVCAR-3 cells): especially dramatic
